The subject of the experiment is angiotensin II-induced pressor responses. Put plainly: Test C: antagonism of angiotensin II-induced pressor responses in terminally-anaesthetised or conscious rats. The note with it: Rattus norvegicus, iv; i.v. administration; read-out: ED₅₀. Type of experiment: in vivo. On the procedure: This in vivo test involves using terminally-anaesthetised or conscious rats in which an arterial catheter has been implanted under anaesthesia for the measurement of changes in blood pressure. The AII antagonistic effects of the test compound following oral or parenteral administration, are assessed against angiotensin II-induced pressor responses. To ensure that the effect is specific, the effect of the test compound on vasopressin-induced pressor responses may also be determined in the same preparation.

SMILES strings stand for the structures.

Take `Cc1cc(OCc2ccc(-c3ccccc3-c3nnn[nH]3)cc2)c2ccccc2n1.Cl` [2-methyl-4-[(2′-(1H-tetrazol-5-yl)biphenyl-4-yl)methoxy]quinoline hydrochloride]: the ED50 amounted to 0.5 mg/kg.

For the origin of these results see patent publication EP0470795A1, “Process for the manufacture of nitriles” (ZENECA LIMITED, priority 1990, dated 1992).
